“Also recorded” adds a separate entry of the source.
Columns and labels:
5-LO [1] = molecular target: T1, 5-LO (Homo sapiens, UniProt P09917); assay: 5-LO product biosynthesis assay in stimulated HEK293 cells co-transfected with 5-LO and FLAP; format: cell-based; set-up: expressed in transfected cells; host or cells: HEK293 cells, stably co-transfected (pcDNA3.1 5-LO, pBUDCE4.1 FLAP); settings: compounds at 1 µM; result in words, compared with zileuton (1) and SAPE (2) at 1 µM; A23187 + arachidonic acid stimulation
T1 sequence (P09917 1-674): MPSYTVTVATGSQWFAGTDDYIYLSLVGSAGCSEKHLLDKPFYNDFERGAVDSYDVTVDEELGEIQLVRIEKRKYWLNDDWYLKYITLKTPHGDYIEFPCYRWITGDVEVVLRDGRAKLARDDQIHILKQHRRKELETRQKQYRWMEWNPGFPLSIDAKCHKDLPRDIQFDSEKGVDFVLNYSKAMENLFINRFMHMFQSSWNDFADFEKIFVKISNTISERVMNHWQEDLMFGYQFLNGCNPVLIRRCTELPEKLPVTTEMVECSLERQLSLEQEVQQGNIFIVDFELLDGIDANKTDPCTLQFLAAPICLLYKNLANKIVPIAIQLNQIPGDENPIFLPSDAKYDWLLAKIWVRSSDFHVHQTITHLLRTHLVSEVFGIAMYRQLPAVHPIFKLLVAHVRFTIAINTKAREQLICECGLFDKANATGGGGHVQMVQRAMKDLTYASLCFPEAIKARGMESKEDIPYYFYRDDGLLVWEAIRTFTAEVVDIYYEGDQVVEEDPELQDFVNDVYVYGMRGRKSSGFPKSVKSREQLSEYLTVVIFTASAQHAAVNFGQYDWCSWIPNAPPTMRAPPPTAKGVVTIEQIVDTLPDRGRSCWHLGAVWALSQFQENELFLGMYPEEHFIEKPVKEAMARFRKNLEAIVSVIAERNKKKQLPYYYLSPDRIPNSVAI
Procedure: All compounds, including known inhibitors zileuton (1) and SAPE (2), were assayed at 1 µM (Figure 1) for inhibition of LTs biosynthesis in stimulated HEK293 cells. These cells are stably transfected with human 5-LO and serves as a highly reproducible model of 5-LO product biosynthesis in which compounds can be preliminarily screened for anti-LTs activity before moving on to more complex systems. […] Esterification of benzo[b]thiophene-2-carboxylic acid to obtain benzyl to phenbutyl analogs (4–7) had no effect on the inhibitory activity of 5-LO. […] Even the addition of a hydroxyl (8) or methoxy (9) at para-position of the phenethyl group has no effect on the activity.
HEK293 cells were stably co-transfected with a pcDNA3.1 vector expressing 5-LO and a pBUDCE4.1 vector expressing 5-LO activating protein (FLAP) as previously reported. This represents a controlled model for the evaluation of 5-LO inhibition in a cellular system. For cell stimulation of 5-LO products, transfected HEK293 cells were collected following trypsinization, washed and the cell pellet was resuspended in Hank’s balanced salt solution (HBSS) (Lonza, Walkerville, MD) containing 1.6 mM CaCl2 at a concentration of 5 × 10^5 cells/mL. Cells were pre-incubated with each compound dissolved in DMSO at the indicated concentration for 5 min at 37 °C. Cells were then stimulated for 15 min at 37 °C with the addition of 10 µM calcium ionophore A23187 (Sigma-Aldrich, Oakville, ON, Canada) and 10 µM arachidonic acid (Cayman Chemical, Ann Arbor, MI). Stimulation was stopped and processed for RP-HPLC analysis as described previously.

5-LO [2] = molecular target: T1, 5-LO; assay: 5-LO products biosynthesis assay in human PMNL cells; format: cell-based; set-up: 5-LO is highly expressed in PMNL; endogenous in cells; host or cells: human PMNL from peripheral blood of healthy volunteers; settings: for Inhibition of the biosynthesis of 5-LO products in human PMNL cells: compounds at 1 µM, result in words, compared with zileuton (1), SAPE (2) or controls, thapsigargin stimulation
Description: To further probe the inhibitory activity of compounds that approached the inhibitory activity of zileuton (1) and SAPE (2), compounds were selected for further screening in PMNL (Figure 6). 5-LO is highly expressed in PMNL and these cells are important physiological producers of LTB4 [17]. […] The presence of the hydroxyl group in position 4 and the methoxy groups in positions 3 and 5 seems to be an ideal combination for inhibition of 5-LO (Figure 6). These structural changes may influence the availability, cell permeation, or even the stability of inhibitors in PMNL versus HEK293 cells. […] Human PMNL were prepared from peripheral blood of healthy consenting volunteers as described. Human PMNL are an important source of 5-LO metabolites and are relevant primary inflammatory cells for the evaluation of the best compounds identified during the screening process. PMNL were suspended in HBSS containing 1.6 mM CaCl2 (10^7 cells/mL) and pre-incubated with compounds dissolved in DMSO for 5 min at 37 °C in the presence of 0.4 U/mL of adenosine deaminase (Sigma-Aldrich, Oakville, On, Canada). Cells were then stimulated for 15 min at 37 °C with 1 μM thapsigargin (Sigma-Aldrich). Reactions were stopped by the addition of 0.5 mL of cold MeOH:CH3CN (1:1) and 50 ng of PGB2 as internal standard and samples were stored at -20 °C until processing for RP-HPLC analysis as indicated above.

[3] = Free radical scavenging activity assay (DPPH); settings: DPPH stable radical, 30 min, absorbance 517 nm; read-out: Free radical scavenging activity IC50 (µM) [SEM]
Procedure: A mechanism by which 5-LO activity can be inhibited is through reductive inhibition of the ferric non-heme iron of the enzyme. Interactions with stable free radicals provides an evaluation of the reducing ability of the test compounds. Radical scavenging activities of compounds tested in stimulated PMNL were assayed using 2,2-Diphenyl-1-picrylhydrazyl (DPPH) as a stable radical and are expressed as IC50 concentrations in Table 1.
The free radical scavenging activity of test compounds was measured as previously described using 2,2-diphenyl-1-picrylhydrazyl (DPPH) as a stable radical with slight modifications. DPPH (200 µL) in ethanol (250 µM) was mixed with 200 µL of the test compounds (1, 5, 10, 25, 50, 75, and 100 µg/mL). Each mixture was then shaken vigorously and held in the dark for 30 min at room temperature. The absorbance of DPPH at 517 nm was then measured. The radical scavenging activity was expressed in terms of % inhibition of DPPH absorbance:% Inhibition = (A control − A test)/A control) × 100 where A control is the absorbance of the control (DPPH solution without test compounds) and A test is the absorbance of the test sample (DPPH solution plus compounds). Ascorbic acid was used as a positive control. Data were expressed as mean ± SEM of three independent experiments, each performed in triplicate. IC50 values were calculated from a sigmoidal concentration-response curve-fitting model with a variable slope on GraphPad Prism software.

SMILES | melting point [°C] | Inhibition of the biosynthesis of 5-LO products in stimulated HEK293 cells (5-LO [1]) | Inhibition of the biosynthesis of 5-LO products in human PMNL cells (5-LO [2]) | IC50 [3] [µM] | IC50 (5-LO [2]; 95% confidence interval: 0.25–0.53 μM, read-out: IC50 for the inhibition of 5-LO product biosynthesis in PMNL) [µM]
O=C(OCCc1ccccc1)c1cc2ccccc2s1 [Compound 5, Phenethyl 1-benzothiophene-2-carboxylate] | 61 to 62 | – | – | – | –
O=C(/C=C/c1ccccc1)c1cc2ccccc2s1 [Compound 11, (E)-1-(1-Benzothiophen-2-yl)-3-phenyl-2-propen-1-one] | 118 to 120 | less active than SAPE (2); also recorded: non-significantly different than Zileuton (1) | – | – | –
O=C(/C=C/c1ccc(O)cc1)c1cc2ccccc2s1 [Compound 16] | – | non-significantly different than Zileuton (1) | neither compound showed significant inhibition compared to controls | 68.9 | –
COc1ccc(/C=C/C(=O)c2cc3ccccc3s2)cc1O [Compound 17] | – | – | less active than zileuton (1) and SAPE (2) | 64.7 | –
COc1cc(/C=C/C(=O)c2cc3ccccc3s2)ccc1O [Compound 18] | – | not-significantly different than zileuton (1) | less active than zileuton (1) and SAPE (2) | 68.8 | –
COc1cc(/C=C/C(=O)c2cc3ccccc3s2)cc(OC)c1 [Compound 20] | – | not-significantly different than zileuton (1) | – | – | –
COc1cc(/C=C/C(=O)c2cc3ccccc3s2)cc(OC)c1OC [Compound 26] | – | inactive | – | – | –
COc1cc(OC)c(/C=C/C(=O)c2cc3ccccc3s2)c(OC)c1 [Compound 27] | – | equipotent to Zileuton (1) | complete loss of the 5-LO inhibition | 6.9 | –
COc1cc(/C=C/C(=O)c2cc3ccccc3s2)cc(OC)c1O [Compound 28] | – | equipotent to zileuton (1); also recorded: non-significantly different than zileuton (1) and SAPE (2) | three times as active as zileuton (1); also recorded: exceeding zileuton’s (1) inhibitory capacity in PMNL by more than three times | 48.9 | 0.37
Cc1cc(/C=C/C(=O)c2cc3ccccc3s2)cc(C)c1O [Compound 29] | – | does not seem to be favorable for the inhibition of 5-LO products | – | – | –
COc1cc(O)cc(OC)c1/C=C/C(=O)c1cc2ccccc2s1 [Compound 30] | – | less active than compound 28 | – | – | –
COc1cc(/C=C/C(=O)c2cc3ccccc3s2)cc(O)c1OC [Compound 31] | – | inactive; also recorded: less active than compound 28 | total loss of activity; also recorded: inactive | 6.6 | –
NC(=O)N(O)C(=O)/C=C/c1ccccc1 [Compound 33, 1-Hydroxy-1-((E)-3-phenylacryloyl)urea] | 130 to 132 | inactive | – | – | –
COc1ccc(/C=C/C(=O)N(O)C(N)=O)cc1O [Compound 34, 1-Hydroxy-1-((E)-3-(3-hydroxy-4-methoxyphenyl)acryloyl)urea] | 170 to 172 | inactive | – | – | –
COc1cc(/C=C/C(=O)N(O)C(N)=O)ccc1O [Compound 35] | – | inactive | – | – | –
COc1ccc(/C=C/C(=O)N(O)C(N)=O)cc1OC [Compound 36] | – | inactive | – | – | –
COc1cc(/C=C/C(=O)N(O)C(N)=O)cc(OC)c1O [Compound 37] | – | inactive | inactivity; also recorded: inactive | 13.3 | –
NC(=O)N(O)C(=O)c1ccccc1 [Compound 38, 1-Hydroxy-1-(benzoyl)urea] | 127 to 129 | inactive | – | – | –
NC(=O)N(O)C(=O)Cc1ccccc1 [Compound 39, 1-Hydroxy-1-(2-phenylacetyl)urea] | 133 to 135 | inactive | – | – | –
NC(=O)N(O)C(=O)CCc1ccccc1 [Compound 40] | – | inactive | – | – | –
COc1cc(/C=C/C(=O)OCCc2ccccc2)cc(OC)c1O [SAPE (2), sinapic acid phenethyl ester, reference compound] | – | – | – | 25.4 | –
O=C1O[C@H]([C@@H](O)CO)C(O)=C1O [Vitamin C, Ascorbic acid, reference compound] | – | – | – | 21.8 | –
CC(c1cc2ccccc2s1)N(O)C(N)=O (stereo not drawn) [Zileuton (1), zileuton] | – | – | – | > 100 | –

Reference: publication PMC7587396, “New Zileuton-Hydroxycinnamic Acid Hybrids: Synthesis and Structure-Activity Relationship towards 5-Lipoxygenase Inhibition” (Molecules, 2020)
